Drawing on BindingDB's records for patent US20260049068 (Bristol Myers Squibb, 2026), this text covers IC50 for eleven molecules.

In general, IC50 refers to the concentration needed to halve the response being measured. A lower IC50 goes with inhibition by little substance.

Experiment [1] addresses Diacylglycerol kinase alpha (Homo sapiens, UniProt P23743). The experiment in a line: In Vitro DGK Inhibition Assay.
Experimental: (§1) The DGKα (Full Length and Near Full Length) ADP Glo assays were performed using an extruded liposome prep at either 5% DAG or 10% DAG. The Enzymatic reactions were carried out in 50 mM MOPS pH 7.5, 100 mM NaCl, 10 mM MgCl2, 1 μM CaCl2, and 1 mM DTT (assay buffer). The lipid substrate concentrations were 1.9 mM PS, either 0.25 mM DAG (5% liposome prep) or 0.5 mM DAG (10% liposome prep), and 2.7 mM PC for the extruded liposome reactions. […] A 5 mL enzyme/substrate (substrate being the 5× or 10× liposome preparation) solution at 2× final reaction concentrations was prepared by combining 5 ml of the extruded liposome preparation with 10 nM (2× final) DGKα(Near Full Length) or DGKα(Full Length) prepared as described below) and incubated at room temperature for 10 minutes. Next, 1 μL of the 2× enzyme/substrate solution was added to wells containing the test compound and reactions were initiated with the addition of 1 μL 300 uM ATP. Substrate only was added to DMSO only wells for background measurements. The reactions were allowed to proceed for 1 hr, after which 2 μL Glo Reagent (Promega V9101) was added and incubated for 40 minutes. Next, 4 μL Kinase Detection Reagent was added and incubated for 30 minutes. Luminescence was recorded using an EnVision microplate reader. […] The compounds were evaluated at 11 concentrations to determine IC50.
The target in experiment [2] is T1, Diacylglycerol kinase alpha [9-727] (Homo sapiens, UniProt P23743).
T1 construct: 9-727
The experiment in a line: In Vitro DGK Inhibition Assay.
Experimental: as §1

Chain of Diacylglycerol kinase alpha (P23743 whole entry): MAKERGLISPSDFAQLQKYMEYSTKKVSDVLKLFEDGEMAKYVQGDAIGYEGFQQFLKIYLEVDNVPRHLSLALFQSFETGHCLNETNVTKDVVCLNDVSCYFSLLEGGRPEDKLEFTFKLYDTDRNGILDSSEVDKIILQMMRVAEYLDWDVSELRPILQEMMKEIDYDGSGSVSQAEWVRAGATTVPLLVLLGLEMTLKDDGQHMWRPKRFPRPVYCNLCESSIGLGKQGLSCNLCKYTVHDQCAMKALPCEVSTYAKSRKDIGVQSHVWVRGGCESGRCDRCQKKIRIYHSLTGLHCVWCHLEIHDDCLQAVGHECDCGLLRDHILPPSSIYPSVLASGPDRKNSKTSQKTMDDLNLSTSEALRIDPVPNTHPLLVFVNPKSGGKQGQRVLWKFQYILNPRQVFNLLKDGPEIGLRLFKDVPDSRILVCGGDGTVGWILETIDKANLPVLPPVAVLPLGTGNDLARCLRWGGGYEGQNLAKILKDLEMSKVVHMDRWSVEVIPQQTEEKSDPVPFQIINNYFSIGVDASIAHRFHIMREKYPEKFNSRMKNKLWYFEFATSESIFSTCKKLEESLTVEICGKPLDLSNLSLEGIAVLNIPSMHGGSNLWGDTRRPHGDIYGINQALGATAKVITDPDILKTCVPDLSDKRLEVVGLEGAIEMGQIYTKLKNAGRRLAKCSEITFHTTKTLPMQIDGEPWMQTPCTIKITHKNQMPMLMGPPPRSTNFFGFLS
T1 sequence (P23743 whole entry): as above

In turn, `N#Cc1nc(-n2nnnc2CN(CC(O)c2ccccc2)C2CCCCC2)ccc1Cl` (centres undefined) [US20260049068, Example 57] came in with an IC50 in experiment [1] of 120 µM.

As to `C=CCN(Cc1nnnn1-c1ccc(Cl)c(C#N)n1)C1CCCCC1` [US20260049068, Example 17], the IC50 turned out to be 1.2 µM in experiment [1] and 1.6 µM in experiment [2].

The molecule `CN(Cc1nnnn1-c1cccc([N+](=O)[O-])c1)C1CCOCC1` [US20260049068, Example 38] came in with an IC50 in experiment [1] of 15 µM.

In experiment [1], `CN(Cc1nnnn1-c1cccc([N+](=O)[O-])c1)C1CCN(C(=O)OC(C)(C)C)C1` (centres undefined) [US20260049068, Example 39] returned an IC50 of 35 µM.

On to `CC(C)CN(C)Cc1nnnn1-c1cccc([N+](=O)[O-])c1` [US20260049068, Example 42], for which half-maximal inhibition in experiment [1] (IC50) required 32 µM.

For `CN(Cc1nnnn1-c1cc(C#N)cc([N+](=O)[O-])c1)C1CCCCC1` [US20260049068, Example 27], in experiment [2], the IC50 amounted to 0.48 µM.

Turning to `CN(Cc1nnnn1-c1cccc([N+](=O)[O-])c1)C1CC1` [US20260049068, Example 44], in experiment [1], half-maximal inhibition (IC50) was put at 180 µM.

In the case of `CC1CCC(N(C)Cc2nnnn2-c2cccc([N+](=O)[O-])c2)CC1` (centres undefined) [US20260049068, Example 2], the concentration for half-maximal inhibition (IC50) in experiment [1] is 2.7 µM; in experiment [2], 1.2 µM.

Consider `CN(Cc1nnnn1-c1ccc(Cl)c([N+](=O)[O-])c1)C1CCCCC1` [US20260049068, Example 28], for which the figures for the IC50 in experiment [1] and in experiment [2] were 0.06 µM and 0.12 µM, respectively.

Consider `N#Cc1nc(-n2nnnc2CN(Cc2ccccc2)[C@@H]2CCCC[C@H]2O)ccc1Cl` [US20260049068, Example 58], for which the concentration for half-maximal inhibition (IC50) in experiment [1] was found to be 60 µM.

`CN(Cc1nnnn1-c1cccc([N+](=O)[O-])c1)C1CCOC1` (centres undefined) [US20260049068, Example 40]: in experiment [1], the midpoint of inhibition, the IC50, lay at 55 µM. The IC50 values of the last two molecules are within 1.5-fold of each other.
